The results in this text go back to US5631401A, “Inhibitors of protein farnesyltransferase and squalene synthase” (Abbott Laboratories, priority 1995, dated 1997).

SMILES strings stand for the structures.

As usually defined, the inhibition is the share of the control response that was lost under treatment.

The target of test [1] is T1, Rat brain protein farnesyltransferase (Rattus norvegicus, UniProt Q02293+Q04631).
T1 construct: The enzyme was purified according to Reiss, Y., et al., Cell, 62: 81-88 (1990), utilizing steps one through three; from tissue; host or cells: rat brain
Put plainly: In vitro inhibition of protein farnesyltransferase (biotin-lamin substrate, scintillation proximity assay). In kind it is biochemical. The conditions noted are these: for inhibition at 10 µM: compared to uninhibited control; for inhibition at 1 µM: 1 μM (footnote *), read-out: % Inhibition at 1 μM (protein farnesyltransferase, values marked *). Put shortly:
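Protein farnesyltransferase isolated from rat brain was purified following steps one through three of the Reiss et al. method, giving a specific activity of about 10 nmol substrate farnesylated/mg enzyme/hour. Activity was measured with a commercial Amersham scintillation proximity assay kit, using biotin-lamin as the acceptor substrate and radioactive farnesyl diphosphate as the donor.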
Background: Scintillation proximity formats need no separation of bound from free tracer.

The target in test [2] is T2, Rat liver microsomal squalene synthase (Rattus norvegicus, UniProt Q02769).
T2 construct: Rat liver microsomes, the source of enzyme, were prepared; from tissue; host or cells: rat liver microsomes
T2 sequence (Q02769 1-416): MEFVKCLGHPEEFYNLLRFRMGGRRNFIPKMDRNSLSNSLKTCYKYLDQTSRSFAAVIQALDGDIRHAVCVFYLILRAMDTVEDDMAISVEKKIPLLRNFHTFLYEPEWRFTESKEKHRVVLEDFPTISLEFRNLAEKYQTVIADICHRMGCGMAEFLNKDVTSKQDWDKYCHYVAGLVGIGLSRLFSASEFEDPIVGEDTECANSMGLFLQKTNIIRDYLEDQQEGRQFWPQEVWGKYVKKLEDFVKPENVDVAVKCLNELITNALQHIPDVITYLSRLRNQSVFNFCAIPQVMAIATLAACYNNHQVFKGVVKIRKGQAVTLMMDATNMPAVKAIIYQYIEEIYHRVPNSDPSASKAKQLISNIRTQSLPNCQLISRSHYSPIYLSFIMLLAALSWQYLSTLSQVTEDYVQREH
Put plainly: In vitro inhibition of squalene synthase (rat liver microsomes, 3H-farnesyl diphosphate). In kind it is biochemical. The conditions noted are these: for inhibition at 1 µM: compared to controls with no test compound; for inhibition at 10 µM: 10 μM (footnote *), read-out: % Inhibition at 10 μM (squalene synthase, values marked *). The protocol: In vitro inhibition of squalene synthase may be measured by the following procedure.
Rat liver microsomal squalene synthase activity was measured using radioactive farnesyl diphosphate as a substrate and quantitating squalene synthesis by counting the radioactive squalene formed.
Rat liver microsomes, the source of enzyme, were prepared according to the method of Gillies, P. J., et al., Exp. Molec. Pathol. 44: 329-339 (1986), a modification of the procedure of Erickson, S. K., and Cooper, A. D., Metabolism, 29: 991-996 (1980). Approximately 30 μg of microsomal protein was incubated for 10 minutes at 37° C. with 11 μM of ^3 H-farnesyl diphosphate, 49 mCi/mmol, and test compound in the presence of squalene (2 μL), Mg^++, KF, reduced B-nicotinamide adenine dinucleotide phosphate, dithiothreitol, and K2 PO4, pH 7.35, in a total volume of 200 μL. Oxygen was excluded from the closed incubation tube by degassing with nitrogen. The reaction was terminated by the addition of ethanolic KOH and after degassing with N2, the microsomal membranes were solubilized by heating at 60° C. for 30 minutes. The squalene was extracted into hexane, and the squalene was separated from all other radioactive molecules by passage over an activated alumina column. The solution was collected in scintillation vials, evaporated to dryness, liquid scintillation fluid was added, and the radioactivity was determined in a liquid scintillation counter. […]
A general note: Microsomes from liver hold many membrane-bound enzymes, among them those of drug oxidation.

On to `O=C(O)[C@H]1[C@H](C(=O)N(Cc2ccc(Oc3ccccc3)cc2)C2CCCCC2)[C@H](C(=O)O)[C@H]1C(=O)N(Cc1ccc(Oc2ccccc2)cc1)C1CCCCC1` [Example 98, (1α,2β,3β,4α)-1,3-Di[N-cyclohexyl-N-(4-phenoxybenzyl)aminocarbonyl]cyclobutane-2,4-dicarboxylic acid], for which the inhibition at 10 µM in test [1] was 31%. Besides, in test [2], at 1 µM the inhibition was 55%.

Turning to `O=C(O)[C@H]1[C@H](C(=O)N(Cc2ccc(Oc3ccccc3)cc2)CC2CCCCC2)[C@H](C(=O)O)[C@H]1C(=O)N(Cc1ccc(Oc2ccccc2)cc1)CC1CCCCC1` [Example 91], the inhibition at 10 µM in test [1] came to 36%. Moreover, the inhibition at 1 µM in test [2] is 41%.

For `O=C(O)[C@H]1[C@H](C(=O)N(Cc2ccc(Oc3ccccc3)cc2)C2CC2)[C@H](C(=O)O)[C@H]1C(=O)N(Cc1ccc(Oc2ccccc2)cc1)C1CC1` [Example 31, (1α,2β,3β,4α)-1,3-Di[N-cyclopropyl-N-(4-phenoxybenzyl)aminocarbonyl]cyclobutane-2,4-dicarboxylic acid], testing at 10 µM in test [1] gave an inhibition of 74%. For the same compound, the inhibition at 1 µM in test [2] came to 23%.

`CC(C)N(Cc1ccc(Oc2ccccc2)cc1)C(=O)[C@H]1[C@H](C(=O)O)[C@H](C(=O)N(Cc2ccc(Oc3ccccc3)cc2)C(C)C)[C@H]1C(=O)O` [Example 24]: the inhibition at 10 µM in test [1] came out at 31%; in test [2], 85%.

For the compound `CCCN(Cc1ccc(Nc2ccccc2)cc1)C(=O)[C@H]1[C@H](C(=O)O)[C@H](C(=O)N(CCC)Cc2ccc(Nc3ccccc3)cc2)[C@H]1C(=O)O` [Example 63], the inhibition at 10 µM in test [1] turned out to be 68%. This compound also came in with an inhibition at 1 µM in test [2] of 44%.

As to `C#CCN(Cc1ccc(Oc2ccccc2)cc1)C(=O)[C@H]1[C@H](C(=O)O)[C@H](C(=O)N(CC#C)Cc2ccc(Oc3ccccc3)cc2)[C@H]1C(=O)O` [Example 28, (1α,2β,3β,4α)-1,3-Di(N-propargyl-N-(4-phenoxybenzyl)aminocarbonyl)cyclobutane-2,4-dicarboxylic acid], the inhibition at 10 µM in test [1] was 28%; in test [2], 49%.

As to `COc1ccc(CN(Cc2ccc(Oc3ccccc3)cc2)C(=O)[C@H]2[C@H](C(=O)O)[C@H](C(=O)N(Cc3ccc(OC)cc3)Cc3ccc(Oc4ccccc4)cc3)[C@H]2C(=O)O)cc1` [Example 89], testing at 10 µM in test [1] gave an inhibition of 50%. Moreover, testing at 1 µM in test [2] gave an inhibition of 47%.

In the case of `CC[C@@H](C)N(Cc1ccc(Oc2ccccc2)cc1)C(=O)[C@H]1[C@H](C(=O)O)[C@H](C(=O)N(Cc2ccc(Oc3ccccc3)cc2)[C@H](C)CC)[C@H]1C(=O)O` [Example 102, (1α,2β,3β,4α)-1,3-Di[N-((2R)-Sec-butyl)-N-(4-phenoxybenzyl)aminocarbonyl]cyclobutane-2,4-dicarboxylic acid], at 10 µM the inhibition in test [1] was 37%. Moreover, in test [2], the inhibition at 1 µM amounted to 48%.

Regarding `O=C(O)CCN(Cc1ccc(Oc2ccccc2)cc1)C(=O)C1C(C(=O)O)C(C(=O)N(CCC(=O)O)Cc2ccc(Oc3ccccc3)cc2)C1C(=O)O` (stereo not drawn) [Example 44, (1α,2β,3β,4α)-1,3-Di[N-(2-carboxyethyl)-N-(4-phenoxybenzyl)aminocarbonyl]cyclobutane-2,4-dicarboxylic acid], in test [1], the inhibition at 10 µM is 81%. Further, in test [2], 1 µM produced 30% inhibition.

For the compound `O=C(O)[C@H]1[C@H](C(=O)N(Cc2ccc(Oc3ccccc3)cc2)CC2CCC2)[C@H](C(=O)O)[C@H]1C(=O)N(Cc1ccc(Oc2ccccc2)cc1)CC1CCC1` [Example 100, (1α,2β,3β,4α)-1,3-Di[N-cyclobutylmethyl-N-(4-phenoxybenzyl)aminocarbonyl]cyclobutane-2,4-dicarboxylic acid], the inhibition at 1 µM was 21% in test [1] and 46% in test [2].

`O=C(O)[C@H]1[C@H](C(=O)N(Cc2ccc(Oc3ccccc3)cc2)C2CCCC2)[C@H](C(=O)O)[C@H]1C(=O)N(Cc1ccc(Oc2ccccc2)cc1)C1CCCC1` [Example 97, (1α,2β,3β,4α)-1,3-Di[N-cyclopentyl-N-(4-phenoxybenzyl)aminocarbonyl]cyclobutane-2,4-dicarboxylic acid] yielded an inhibition at 10 µM in test [1] of 32%. The compound further had an inhibition at 1 µM in test [2] of 49%.

With `O=C(O)[C@H]1[C@H](C(=O)N(CCCc2ccccc2)Cc2ccc(Oc3ccccc3)cc2)[C@H](C(=O)O)[C@H]1C(=O)N(CCCc1ccccc1)Cc1ccc(Oc2ccccc2)cc1` [Example 79, (1α,2β,3β,4α)-1,3-Di [N-(4-phenoxybenzyl)-N-(3-phenyl-1-propyl)aminocarbonyl]cyclobutane-2,4-dicarboxylic acid], 10 µM produced 43% inhibition in test [1]. Testing at 1 µM in test [2] gave an inhibition of 54%.

Consider `O=C(O)[C@H]1[C@H](C(=O)N(Cc2ccccc2)Cc2ccc(Oc3ccccc3)cc2)[C@H](C(=O)O)[C@H]1C(=O)N(Cc1ccccc1)Cc1ccc(Oc2ccccc2)cc1` [Example 16, (1α,2β,3β,4α)-1,3-Di[N-benzyl-N-(4-phenoxybenzyl)aminocarbonyl]cyclobutane-2,4-dicarboxylic acid], for which the inhibition at 10 µM in test [1] was 98%. For the same compound, in test [2], 1 µM produced 25% inhibition.

Turning to `CCCN(Cc1ccc(Cc2ccccc2)cc1)C(=O)[C@H]1[C@H](C(=O)O)[C@H](C(=O)N(CCC)Cc2ccc(Cc3ccccc3)cc2)[C@H]1C(=O)O` [Example 26, (1α,2β,3β,4α)-1,3-Di(N-propyl-N-(4-(benzyl)benzyl)aminocarbonyl)cyclobutane-2,4-dicarboxylic acid], the inhibition at 10 µM in test [1] is 69%; in test [2] it was 33%.

As to `O=C(O)C1C(C(=O)N(Cc2ccc(Oc3ccccc3)cc2)Cc2ccco2)C(C(=O)O)C1C(=O)N(Cc1ccc(Oc2ccccc2)cc1)Cc1ccco1` (stereo not drawn) [Example 72, (1α,2β,3β,4α)-1,3-Di[N-(furan-2-ylmethyl)-N-(4-phenoxybenzyl)aminocarbonyl]cyclobutane-2,4-dicarboxylic acid], the figures for the inhibition at 1 µM in test [1] and in test [2] were 82% and 32%, respectively.

Consider `O=C(O)C1C(C(=O)N(CCSCc2ccccc2)Cc2ccc(Oc3ccccc3)cc2)C(C(=O)O)C1C(=O)N(CCSCc1ccccc1)Cc1ccc(Oc2ccccc2)cc1` (stereo not drawn) [Example 71, (1α,2β,3β,4α)-1,3-Di[N-(2-benzylthioethyl)-N-(4-phenoxybenzyl)aminocarbonyl]cyclobutane-2,4-dicarboxylic acid], for which the inhibition at 1 µM was 32% in test [1] and 25% in test [2].

The compound `COc1ccc(CCN(Cc2ccc(Oc3ccccc3)cc2)C(=O)[C@H]2[C@H](C(=O)O)[C@H](C(=O)N(CCc3ccc(OC)c(OC)c3)Cc3ccc(Oc4ccccc4)cc3)[C@H]2C(=O)O)cc1OC` [Example 77, (1α,2β,3β,4α)-1,3-Di [N-(4-phenoxybenzyl)-N-(3,4-dimethoxyphenethyl)aminocarbonyl]cyclobutane-2,4-dicarboxylic acid] gave an inhibition at 10 µM in test [1] of 48%. The same compound gave an inhibition at 1 µM in test [2] of 23%.

As to `O=C(O)[C@H]1[C@H](C(=O)N(CCCCc2ccccc2)Cc2ccc(Oc3ccccc3)cc2)[C@H](C(=O)O)[C@H]1C(=O)N(CCCCc1ccccc1)Cc1ccc(Oc2ccccc2)cc1` [Example 80, (1α,2β,3β,4α)-1,3-Di [N-(4-phenoxybenzyl)-N-(4-phenyl-1-butyl)aminocarbonyl]cyclobutane-2,4-dicarboxylic acid], at 10 µM the inhibition in test [1] was 51%. Moreover, the inhibition at 1 µM in test [2] stood at 42%.

`CCCCN(Cc1ccc(Oc2ccccc2)cc1)C(=O)[C@H]1[C@H](C(=O)O)[C@H](C(=O)N(CCCC)Cc2ccc(Oc3ccccc3)cc2)[C@H]1C(=O)O` [Example 27, (1α,2β,3β,4α)-1,3-Di(N-butyl-N-(4-phenoxybenzyl)aminocarbonyl)cyclobutane-2,4-dicarboxylic acid] gave an inhibition at 10 µM in test [1] of 69%. In test [2], this compound displayed an inhibition at 1 µM of 35%.

`O=C(O)[C@H]1[C@H](C(=O)N(Cc2ccccc2)Cc2ccccc2)[C@H](C(=O)O)[C@H]1C(=O)N(Cc1ccccc1)Cc1ccccc1` [Example 33, (1α,2β,3β,4α)-1,3-Di[N,N-dibenzylaminocarbonyl]cyclobutane-2,4-dicarboxylic acid]: the inhibition at 10 µM turned out to be 64% in test [1] and 43% in test [2].
